US12391946B2, “Use of a Janus kinase inhibitor and a telomerase inhibitor for the treatment of myeloproliferative neoplasms” (priority 2019, dated 2025)
Like-named read-outs stand apart in the source and are kept apart here.

Legend:
Assay type in all cases: cell-based, human
MF splenic CD34+ cells [1] = assay: In vitro treatment of MF splenic CD34+ cells with various doses of Rux; settings: for IC50: Homo sapiens, concentration of Rux achieving 50% inhibition
Experimental: (§1) Treatment of MF and normal CD34^+ cells with doses of Rux and Imetelstat alone and in combination. […] For simultaneous combination treatment, CD34^+ cells were exposed to Rux and imetelstat for 3 days and were washed. Cells were then exposed to imetelstat again for additional 4 days or 11 days. For sequential combination treatment, CD34^+ cells were incubated in the presence of Rux alone for 3 days, followed by imetelstat alone for 7 or 14 days. For the three treatment strategies containing imetelstat, cells were dosed in total three times with imetelstat. Three days after Rux alone treatment and 7 or 14 days after each treatment with imetelstat, cells were enumerated and stained with CD34, a lineage cocktail, and CD15 mAbs and analyzed flow cytometrically. The absolute numbers of Lin^− CD34^+ (phenotypically defined HSC/HPC) and CD15^+CD34^− (myeloid) cells generated in the cultures were calculated by multiplying the total viable cell numbers by the percentage of CD34^+Lin^− and CD15^+CD34^− cells. In addition, parallel cultures to which MM or vehicle alone was added were performed.

CB CD34+ cells = assay: In vitro treatment of CB CD34+ cells with various doses of Rux; settings: various doses of Rux (50-500 nM)
Experimental: as §1

MF splenic CD34+ cells [2] = assay: In vitro treatment of MF splenic CD34+ cells with Rux and imetelstat alone and in combination (flow cytometry, HPC assays); settings: Rux alone 50 nM 3 days
Experimental: as §1, with “In addition, parallel cultures to which MM or vehicle alone was added were performed.” left out
HPC assays. A fraction of cells harvested from the above cultures were also analyzed in methylcellulose to which a cytokine cocktail was added according to the manufacturer's instructions (StemCell Technologies). […] Individual CFU-GM colonies (20-38 colonies/treatment group/patient) were plucked and analyzed for the presence of JAK2V617F using a nested allele-specific PCR. […]

**Q.** Which IC50 (MF splenic CD34+ cells [1]; CD34+ cell, read-out: 50% inhibition of MF CD34+ cell proliferation) does the source give for `N#CC[C@H](C1CCCC1)n1cc(-c2ncnc3[nH]ccc23)cn1` [Rux, (3R)-3-Cyclopentyl-3-[4-(7H-pyrrolo[2,3-d]pyrimidin-4-yl)pyrazol-1-yl]propanenitrile] here?
**A.** 150 nM

**Q.** And the IC50 (MF splenic CD34+ cells [1]; CFU-GM, MF CD34+ cells, read-out: 50% inhibition of CFU-GM formation)?
**A.** 150 nM

**Q.** And the “absolute number of MF splenic CD34+ cells” value (MF splenic CD34+ cells [1]; various doses of Rux (50-500 nM))?
**A.** decreased in a dose dependent fashion

**Q.** And the “number of CB CD34+ cells” value (CB CD34+ cells)?
**A.** decreased only to a limited degree

**Q.** And the “number of mature myeloid cells generated in cultures of splenic MF CD34+ cells” value (MF splenic CD34+ cells [2]; P=0.001)?
**A.** reduced

**Q.** What about the “numbers of assayable HPCs (CFU-GM+BFU-E+CFU-GEMM) generated in cultures of splenic MF CD34+ cells” value (MF splenic CD34+ cells [2]; P=9.69E-06) of the same compound?
**A.** reduced
